# Test: solvent given as SMILES
compound,measurement,setting,value
C#CCC,"solvation free energy, 298 K",in C1COCCO1,-12.6 kJ/mol
same,"solvation free energy, 298 K",in CC(C)=O,-12.5 kJ/mol
same,"solvation free energy, 298 K",in CC(C)CC(C)(C)C,-9.87 kJ/mol
same,"solvation free energy, 298 K",in CN(C)C=O,-12.2 kJ/mol
same,"solvation free energy, 298 K",in COC(C)=O,-12.7 kJ/mol
same,"solvation free energy, 298 K",in O,-0.669 kJ/mol
CCCCCC=O,"solvation free energy, 298 K",in CCCCCCCC,-19.9 kJ/mol
same,"solvation free energy, 298 K",in CCCCCCCCCCCCCCCC,-18.9 kJ/mol
same,"solvation free energy, 298 K",in CCCCCCCCO,-24.9 kJ/mol
same,"solvation free energy, 298 K",in NC=O,-16.8 kJ/mol
same,"solvation free energy, 298 K",in O,-11.5 kJ/mol
same,"solvation free energy, 298 K",in [2H]O[2H],-11.5 kJ/mol
CCNc1nc(Cl)nc(NCC)n1,"solvation free energy, 298 K",in O,-42 kJ/mol
ClC1=C(Cl)C2(Cl)C3C4C=CC(C4)C3C1(Cl)C2(Cl)Cl (stereo not drawn),"solvation free energy, 298 K",in CCCCCCCCO,-47.2 kJ/mol
same,"solvation free energy, 298 K",in O,-15.7 kJ/mol
CC(=O)OC1C2(C)CCC(C2)C1(C)C (stereo not drawn),"solvation free energy, 298 K",in O,-11.3 kJ/mol
CCCSC(=O)N(CCC)CCC,"solvation free energy, 298 K",in O,-17.3 kJ/mol
CCN(C)N=O,"solvation free energy, 298 K",in CC(C)CC(C)(C)C,-18.5 kJ/mol
same,"solvation free energy, 298 K",in O,-24 kJ/mol
Cc1c(C)c(C)c(C)c(C)c1C,"solvation free energy, 298 K",in CCCCCCCCO,-36 kJ/mol
same,"solvation free energy, 298 K",in O,-8.16 kJ/mol
OCCc1ccccc1,"solvation free energy, 298 K",in O,-28.4 kJ/mol
Clc1ccc2c(c1)Oc1ccccc1O2,"solvation free energy, 298 K",in O,-13 kJ/mol
Clc1cc2c(cc1Cl)Oc1c(Cl)c(Cl)c(Cl)c(Cl)c1O2,"solvation free energy, 298 K",in O,-15.5 kJ/mol
Clc1ccccn1,"solvation free energy, 298 K",in O,-18.4 kJ/mol
O=c1[nH]cc(Cl)c(=O)[nH]1,"solvation free energy, 298 K",in O,-74.2 kJ/mol
CS(=O)(=O)Cl,"solvation free energy, 298 K",in O,-20.4 kJ/mol
CC(C)OC(=O)c1ccccc1C(=O)OC(C)C,"solvation free energy, 298 K",in O,-31 kJ/mol
CCCCCCCCCCCOC(=O)c1ccccc1C(=O)OCCCCCCCCCCC,"solvation free energy, 298 K",in O,-25.4 kJ/mol
CCCCCCCCCCCCCC(=O)OC,"solvation free energy, 298 K",in O,-4.77 kJ/mol
CS(C)(=O)=O,"solvation free energy, 298 K",in O,-42.2 kJ/mol
COc1cc(C)ccc1O,"solvation free energy, 298 K",in O,-24.3 kJ/mol
CC(C)(Cl)Cl,"solvation free energy, 298 K",in O,-1.8 kJ/mol
CC(C)(C)c1ccc(O)cc1,"solvation free energy, 298 K",in CCCCCC,-31.9 kJ/mol
same,"solvation free energy, 298 K",in O,-24.7 kJ/mol
CN(C)C1CCCCC1,"solvation free energy, 298 K",in O,-17.2 kJ/mol
Oc1c(I)cc(I)cc1I,"solvation free energy, 298 K",in CC(C)CC(C)(C)C,-52 kJ/mol
same,"solvation free energy, 298 K",in CCCCOCCCC,-59.2 kJ/mol
same,"solvation free energy, 298 K",in O,-30 kJ/mol
CC#N,"solvation free energy, 298 K",in Brc1cccc2ccccc12,-14.4 kJ/mol
same,"solvation free energy, 298 K",in C1CCOC1,-18 kJ/mol
same,"solvation free energy, 298 K",in C1COCCO1,-18.6 kJ/mol
same,"solvation free energy, 298 K",in CC(=O)N(C)C,-20.1 kJ/mol
same,"solvation free energy, 298 K",in CC(=O)OCc1ccccc1,-17.1 kJ/mol
same,"solvation free energy, 298 K",in CC(C)=O,-16 kJ/mol
same,"solvation free energy, 298 K",in CC(C)CCCC(C)CCCC(C)CCCCC(C)CCCC(C)CCCC(C)C,-7.82 kJ/mol
same,"solvation free energy, 298 K",in CCC(C)=O,-18.7 kJ/mol
same,"solvation free energy, 298 K",in CCCCCC,-10.1 kJ/mol
same,"solvation free energy, 298 K",in CCCCCCC,-9.54 kJ/mol
same,"solvation free energy, 298 K",in CCCCCCCC,-9.08 kJ/mol
same,"solvation free energy, 298 K",in CCCCCCCCCCCCCCCC,-8.54 kJ/mol
same,"solvation free energy, 298 K",in CCCCCCCCO,-13.2 kJ/mol
same,"solvation free energy, 298 K",in CCCCCl,-15.2 kJ/mol
same,"solvation free energy, 298 K",in CCCCN(C=O)CCCC,-17.1 kJ/mol
same,"solvation free energy, 298 K",in CCCCO,-14.9 kJ/mol
same,"solvation free energy, 298 K",in CCCCOCCCC,-12.1 kJ/mol
same,"solvation free energy, 298 K",in CCO,-16.6 kJ/mol
same,"solvation free energy, 298 K",in CCOC(C)=O,-17.5 kJ/mol
same,"solvation free energy, 298 K",in CCOCC,-15.2 kJ/mol
same,"solvation free energy, 298 K",in CN1CCCCC1=O,-19.5 kJ/mol
same,"solvation free energy, 298 K",in CN(C)C=O,-19.5 kJ/mol
same,"solvation free energy, 298 K",in CNC(C)=O,-17.7 kJ/mol
same,"solvation free energy, 298 K",in CO,-16.9 kJ/mol
same,"solvation free energy, 298 K",in COC(C)(C)C,-15.4 kJ/mol
same,"solvation free energy, 298 K",in COC(C)=O,-19 kJ/mol
same,"solvation free energy, 298 K",in Cc1ccc(C)cc1,-14.4 kJ/mol
same,"solvation free energy, 298 K",in ClC(Cl)(Cl)Cl,-12.7 kJ/mol
same,"solvation free energy, 298 K",in ClC(Cl)Cl,-18.5 kJ/mol
same,"solvation free energy, 298 K",in ClCCCl,-18.5 kJ/mol
same,"solvation free energy, 298 K",in ClCCl,-19.7 kJ/mol
same,"solvation free energy, 298 K",in Clc1ccccc1,-15.6 kJ/mol
same,"solvation free energy, 298 K",in NC=O,-18.3 kJ/mol
same,"solvation free energy, 298 K",in O,-16.4 kJ/mol
same,"solvation free energy, 298 K",in O=C1CCCCC1,-18 kJ/mol
same,"solvation free energy, 298 K",in [2H]O[2H],-17.2 kJ/mol
same,"solvation free energy, 298 K",in c1ccc2ncccc2c1,-16.7 kJ/mol
COC(=O)c1cc([N+](=O)[O-])cc([N+](=O)[O-])c1,"solvation free energy, 298 K",in CN(C)C=O,-55.8 kJ/mol
same,"solvation free energy, 298 K",in O,-37.3 kJ/mol
